From publication PMC7206119, “RIP1 inhibition blocks inflammatory diseases but not tumor growth or metastases” (Cell Death and Differentiation, 2019)

Assays:
Assay in all cases: biochemical
Design in all cases: DiscoverX kinase panel, active-site competition binding (KINOMEscan type), percent of control at one concentration
Details in all cases: competition binding, percent of control
KIT(D816V) = KIT(D816V) (Homo sapiens, UniProt P10721, D816V)
[1] = molecular target: T1, ABL1(M351T)-phosphorylated (Homo sapiens, UniProt P00519, M351T)
T1 construct: phosphorylated

BRSK2 = BRSK2 (Homo sapiens, UniProt Q8IWQ3)
YANK1 = molecular target: T2, YANK1 (Homo sapiens, UniProt Q8WU08)
T2 construct: gene STK32A

RET(V804L) = RET(V804L) (Homo sapiens, UniProt P07949, V804L)
[2] = molecular target: T3, ABL1(H396P)-phosphorylated (Homo sapiens, UniProt P00519, H396P)
T3 construct: phosphorylated

MST2 = molecular target: T4, MST2 (Homo sapiens, UniProt Q13188)
T4 construct: gene STK3

AURKA = AURKA (Homo sapiens, UniProt O14965)
EGFR(S752-I759del) = EGFR(S752-I759del) (Homo sapiens, UniProt P00533, DEL752-759)
PCTK2 = molecular target: T5, PCTK2 (Homo sapiens, UniProt Q00537)
T5 construct: gene CDK17

PAK1 = PAK1 (Homo sapiens, UniProt Q13153)
MEK5 = molecular target: T6, MEK5 (Homo sapiens, UniProt Q13163)
T6 construct: gene MAP2K5

PIK4CB = molecular target: T7, PIK4CB (Homo sapiens, UniProt Q9UBF8)
T7 construct: gene PI4KB

MLK2 = molecular target: T8, MLK2 (Homo sapiens, UniProt Q02779)
T8 construct: gene MAP3K10

ERK3 = molecular target: T9, ERK3 (Homo sapiens, UniProt Q16659)
T9 construct: gene MAPK6

MAST1 = MAST1 (Homo sapiens, UniProt Q9Y2H9)
WEE1 = WEE1 (Homo sapiens, UniProt P30291)
CDK4-cyclinD3 = molecular target: T10, CDK4-cyclinD3 (Homo sapiens, UniProt P11802)
T10 construct: cyclinD3

CSNK2A2 = CSNK2A2 (Homo sapiens, UniProt P19784)
ULK2 = ULK2 (Homo sapiens, UniProt Q8IYT8)
PIP5K1C = PIP5K1C (Homo sapiens, UniProt O60331)

Chain of MAST1 (Q9Y2H9 whole entry): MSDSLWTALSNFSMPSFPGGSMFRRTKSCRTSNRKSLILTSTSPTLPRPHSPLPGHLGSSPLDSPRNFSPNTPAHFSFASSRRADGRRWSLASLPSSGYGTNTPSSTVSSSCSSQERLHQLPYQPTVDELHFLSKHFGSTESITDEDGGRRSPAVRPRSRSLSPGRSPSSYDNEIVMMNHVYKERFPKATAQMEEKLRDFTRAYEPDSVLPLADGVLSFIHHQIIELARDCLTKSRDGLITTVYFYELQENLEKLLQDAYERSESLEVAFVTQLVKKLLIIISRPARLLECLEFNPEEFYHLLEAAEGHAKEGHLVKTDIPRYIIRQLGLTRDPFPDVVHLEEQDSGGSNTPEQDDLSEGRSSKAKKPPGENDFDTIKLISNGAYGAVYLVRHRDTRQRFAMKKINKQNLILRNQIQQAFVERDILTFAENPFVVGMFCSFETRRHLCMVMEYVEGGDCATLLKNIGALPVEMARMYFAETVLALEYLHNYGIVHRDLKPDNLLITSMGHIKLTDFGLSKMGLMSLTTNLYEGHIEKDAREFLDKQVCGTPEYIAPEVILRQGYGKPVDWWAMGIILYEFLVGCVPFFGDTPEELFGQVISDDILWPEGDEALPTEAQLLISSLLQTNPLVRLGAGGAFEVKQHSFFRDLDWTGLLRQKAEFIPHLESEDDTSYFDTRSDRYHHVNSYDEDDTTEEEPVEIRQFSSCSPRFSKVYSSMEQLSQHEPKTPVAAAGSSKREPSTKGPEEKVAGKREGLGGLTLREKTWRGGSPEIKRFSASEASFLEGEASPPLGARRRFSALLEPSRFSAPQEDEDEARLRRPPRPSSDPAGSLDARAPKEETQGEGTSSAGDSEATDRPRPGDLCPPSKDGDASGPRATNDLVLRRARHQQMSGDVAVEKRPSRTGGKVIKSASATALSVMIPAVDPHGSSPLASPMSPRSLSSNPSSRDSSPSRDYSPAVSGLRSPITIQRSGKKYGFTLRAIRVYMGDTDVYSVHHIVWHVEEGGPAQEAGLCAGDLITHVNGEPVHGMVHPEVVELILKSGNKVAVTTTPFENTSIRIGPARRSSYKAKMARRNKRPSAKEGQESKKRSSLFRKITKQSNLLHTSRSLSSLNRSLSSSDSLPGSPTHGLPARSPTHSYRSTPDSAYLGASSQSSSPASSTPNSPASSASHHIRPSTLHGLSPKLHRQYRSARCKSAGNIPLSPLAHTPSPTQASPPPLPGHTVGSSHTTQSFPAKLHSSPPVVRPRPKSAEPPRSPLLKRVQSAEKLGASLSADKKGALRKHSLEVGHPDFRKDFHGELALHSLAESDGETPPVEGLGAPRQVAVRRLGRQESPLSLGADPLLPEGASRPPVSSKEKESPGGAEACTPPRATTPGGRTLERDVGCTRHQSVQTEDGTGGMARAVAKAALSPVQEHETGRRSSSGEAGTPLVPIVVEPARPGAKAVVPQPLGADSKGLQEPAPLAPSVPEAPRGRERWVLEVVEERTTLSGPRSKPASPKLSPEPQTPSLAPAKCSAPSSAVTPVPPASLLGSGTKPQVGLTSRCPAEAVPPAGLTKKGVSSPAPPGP
Chain of CSNK2A2 (P19784 whole entry): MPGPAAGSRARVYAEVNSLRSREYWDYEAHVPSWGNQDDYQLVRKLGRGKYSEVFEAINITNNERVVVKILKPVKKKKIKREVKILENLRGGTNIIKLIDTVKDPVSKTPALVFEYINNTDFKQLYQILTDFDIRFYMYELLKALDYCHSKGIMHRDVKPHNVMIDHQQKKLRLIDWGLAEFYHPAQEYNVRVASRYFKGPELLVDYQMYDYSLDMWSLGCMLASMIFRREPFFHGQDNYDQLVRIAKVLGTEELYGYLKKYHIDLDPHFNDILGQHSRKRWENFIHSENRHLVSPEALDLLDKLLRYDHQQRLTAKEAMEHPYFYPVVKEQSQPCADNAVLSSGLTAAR
Chain of BRSK2 (Q8IWQ3 whole entry): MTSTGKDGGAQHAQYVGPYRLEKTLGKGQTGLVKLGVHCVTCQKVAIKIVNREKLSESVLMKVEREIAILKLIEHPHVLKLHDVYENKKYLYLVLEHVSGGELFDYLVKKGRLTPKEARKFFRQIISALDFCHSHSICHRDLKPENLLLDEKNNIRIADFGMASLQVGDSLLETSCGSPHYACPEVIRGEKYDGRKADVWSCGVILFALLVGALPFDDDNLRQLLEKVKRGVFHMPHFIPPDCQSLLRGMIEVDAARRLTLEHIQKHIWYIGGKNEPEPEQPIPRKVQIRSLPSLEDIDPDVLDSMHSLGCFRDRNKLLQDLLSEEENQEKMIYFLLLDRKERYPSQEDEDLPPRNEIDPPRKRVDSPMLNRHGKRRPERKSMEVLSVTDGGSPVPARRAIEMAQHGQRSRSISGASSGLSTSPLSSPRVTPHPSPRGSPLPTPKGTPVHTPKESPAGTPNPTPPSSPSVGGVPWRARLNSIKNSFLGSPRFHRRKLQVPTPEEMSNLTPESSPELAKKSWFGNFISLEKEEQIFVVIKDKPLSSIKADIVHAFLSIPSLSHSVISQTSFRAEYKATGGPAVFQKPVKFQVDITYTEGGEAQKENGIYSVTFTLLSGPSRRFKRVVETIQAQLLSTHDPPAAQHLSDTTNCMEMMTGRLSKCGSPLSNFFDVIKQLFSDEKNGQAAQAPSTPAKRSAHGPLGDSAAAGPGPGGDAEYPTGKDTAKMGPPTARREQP
Chain of AURKA (O14965 whole entry): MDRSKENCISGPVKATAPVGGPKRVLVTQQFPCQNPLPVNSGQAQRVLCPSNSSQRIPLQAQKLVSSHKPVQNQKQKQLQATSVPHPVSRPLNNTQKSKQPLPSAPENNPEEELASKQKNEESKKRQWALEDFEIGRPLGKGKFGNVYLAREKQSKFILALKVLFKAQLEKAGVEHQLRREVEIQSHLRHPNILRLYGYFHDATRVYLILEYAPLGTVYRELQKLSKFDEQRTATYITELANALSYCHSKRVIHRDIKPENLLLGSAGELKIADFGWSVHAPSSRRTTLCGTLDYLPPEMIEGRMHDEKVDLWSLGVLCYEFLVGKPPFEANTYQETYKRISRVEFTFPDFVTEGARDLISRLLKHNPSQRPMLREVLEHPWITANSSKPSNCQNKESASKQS
Chain of ULK2 (Q8IYT8 whole entry): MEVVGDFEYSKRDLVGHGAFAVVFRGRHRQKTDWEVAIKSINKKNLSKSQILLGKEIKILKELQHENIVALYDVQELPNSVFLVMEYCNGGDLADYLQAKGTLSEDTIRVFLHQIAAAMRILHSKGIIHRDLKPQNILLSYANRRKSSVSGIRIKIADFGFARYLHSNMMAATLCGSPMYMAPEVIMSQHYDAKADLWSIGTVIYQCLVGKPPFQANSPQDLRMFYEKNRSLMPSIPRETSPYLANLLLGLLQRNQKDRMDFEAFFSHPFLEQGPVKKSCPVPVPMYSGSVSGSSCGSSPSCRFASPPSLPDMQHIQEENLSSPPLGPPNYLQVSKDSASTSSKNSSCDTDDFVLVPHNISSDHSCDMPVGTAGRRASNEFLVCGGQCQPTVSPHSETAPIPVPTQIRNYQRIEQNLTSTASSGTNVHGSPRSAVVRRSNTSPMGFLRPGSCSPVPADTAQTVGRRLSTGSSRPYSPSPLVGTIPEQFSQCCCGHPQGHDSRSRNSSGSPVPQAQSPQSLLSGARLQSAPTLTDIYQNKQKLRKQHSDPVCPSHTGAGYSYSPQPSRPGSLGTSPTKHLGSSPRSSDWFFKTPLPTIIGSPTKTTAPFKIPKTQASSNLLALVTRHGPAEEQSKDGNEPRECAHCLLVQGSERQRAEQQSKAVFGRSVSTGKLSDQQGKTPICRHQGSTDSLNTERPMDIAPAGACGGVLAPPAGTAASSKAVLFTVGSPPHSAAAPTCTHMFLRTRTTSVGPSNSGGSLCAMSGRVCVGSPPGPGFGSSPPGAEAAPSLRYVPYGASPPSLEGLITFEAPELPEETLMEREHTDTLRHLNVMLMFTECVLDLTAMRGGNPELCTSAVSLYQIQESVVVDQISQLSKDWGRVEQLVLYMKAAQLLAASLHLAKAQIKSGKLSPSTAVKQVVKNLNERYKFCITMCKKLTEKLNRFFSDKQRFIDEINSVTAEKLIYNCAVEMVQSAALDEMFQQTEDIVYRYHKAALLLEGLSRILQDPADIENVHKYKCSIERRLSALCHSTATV
T10 sequence (P11802 whole entry): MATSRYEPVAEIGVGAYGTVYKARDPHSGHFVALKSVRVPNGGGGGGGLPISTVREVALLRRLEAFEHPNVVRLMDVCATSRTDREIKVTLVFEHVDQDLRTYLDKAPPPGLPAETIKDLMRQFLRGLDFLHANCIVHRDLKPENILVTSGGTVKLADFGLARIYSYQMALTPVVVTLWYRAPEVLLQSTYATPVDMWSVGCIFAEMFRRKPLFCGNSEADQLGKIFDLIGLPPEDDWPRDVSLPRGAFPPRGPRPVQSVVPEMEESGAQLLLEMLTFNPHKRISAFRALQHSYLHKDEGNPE
T10 sequence (P30281 whole entry partner): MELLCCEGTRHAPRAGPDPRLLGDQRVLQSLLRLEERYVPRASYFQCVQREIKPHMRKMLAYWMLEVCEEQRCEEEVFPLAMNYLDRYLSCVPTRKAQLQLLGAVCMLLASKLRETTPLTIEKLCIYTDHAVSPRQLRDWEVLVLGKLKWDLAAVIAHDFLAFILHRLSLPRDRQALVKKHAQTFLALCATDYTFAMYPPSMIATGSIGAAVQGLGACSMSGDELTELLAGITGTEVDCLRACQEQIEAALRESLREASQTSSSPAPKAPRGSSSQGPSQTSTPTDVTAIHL

Work on `COc1cc2c(cn1)N(C)C(=O)[C@@H](NC(=O)c1nc3n(n1)[C@H](c1ccccc1)CC3)CC2` [GNE684, (S)-N-((S)-7-methoxy-1-methyl-2-oxo-2,3,4,5-tetrahydro-1H-pyrido[3,4-b]azepin-3-yl)-5-phenyl-6,7-dihydro-5H-pyrrolo[1,2-b][1,2,4]triazole-2-carboxamide] yielded a remaining binding at 10 µM (KIT(D816V)) of 100%, a remaining binding at 10 µM [1] of 100% and a remaining binding at 10 µM (BRSK2) of 89%. For the same compound, the remaining binding at 10 µM (YANK1) was 100%, the remaining binding at 10 µM (RET(V804L)) was 91% and the remaining binding at 10 µM [2] was 92%. For the same compound, the remaining binding at 10 µM (MST2) was 100%, the remaining binding at 10 µM (AURKA) was 96% and the remaining binding at 10 µM (EGFR(S752-I759del)) was 97%. For the same compound, the remaining binding at 10 µM (PCTK2) was 100%, the remaining binding at 10 µM (PAK1) was 94% and the remaining binding at 10 µM (MEK5) was 80%. It also gave a remaining binding at 10 µM (PIK4CB) of 98%, a remaining binding at 10 µM (MLK2) of 72% and a remaining binding at 10 µM (ERK3) of 100%. The remaining binding at 10 µM (MAST1) was 94%, the remaining binding at 10 µM (WEE1) was 69% and the remaining binding at 10 µM (CDK4-cyclinD3) was 97%. It also gave a remaining binding at 10 µM (CSNK2A2) of 85%, a remaining binding at 10 µM (ULK2) of 100% and a remaining binding at 10 µM (PIP5K1C) of 100%.
